This assay addresses KRas G12C (Homo sapiens, UniProt P01116, G12C). Briefly: Cellular inhibition of KRas G12C measured by Phospho-ERK in NCI-H358 cells. The assay is classed as cell-based. The note with it: pERK(Thr202/Tyr204) normalized with GAPDH, NCI-H358 cells, 3 hours; read-out: IC50. The gist of the method: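 NCI-H358 cells treated 3 h with compound (0.5% DMSO final), then fixed and methanol-permeabilised. In-cell immunofluorescence measured pERK(Thr202/Tyr204) normalised to GAPDH as percent of DMSO control. IC50 from a 4-parameter dose-response fit.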
Chain of KRas G12C (P01116 1-188 isoform P01116-2 G12C): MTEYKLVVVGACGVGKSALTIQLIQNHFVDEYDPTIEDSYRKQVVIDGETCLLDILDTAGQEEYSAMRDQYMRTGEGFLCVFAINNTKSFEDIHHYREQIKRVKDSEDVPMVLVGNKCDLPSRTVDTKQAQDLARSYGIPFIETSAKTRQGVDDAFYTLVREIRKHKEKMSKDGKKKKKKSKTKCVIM
On to `C=CC(=O)N1CCN(c2nc(OCC3CN(C)CCN3)nc3c2CCN(c2cc(O)cc4ccccc24)C3)CC1` (stereo not shown) [Example 80, 1-(4-(7-(3-hydroxynaphthalen-1-yl)-2-((4-methylpiperazin-2-yl)methoxy)-5,6,7,8-tetrahydropyrido[3,4-d]pyrimidin-4-yl)piperazin-1-yl)prop-2-en-1-one], for which the IC50 is above 1000 nM.

Consider `C=CC(=O)N1CCN(c2nc(OCCCN3CCOCC3)nc3c2CCN(c2c(C)ccc4[nH]ncc24)C3)CC1` [Example 44, 1-(4-(7-(5-methyl-1H-indazol-4-yl)-2-(3-morpholinopropoxy)-5,6,7,8-tetrahydropyrido[3,4-d]pyrimidin-4-yl)piperazin-1-yl)prop-2-en-1-one], for which the IC50 was above 1000 nM. Regarding `C=CC(=O)N1CCN(c2nc(OC[C@@H]3CCCN3C)nc3c2CCN(c2ccnc4ccccc24)C3)CC1CC#N` (stereo partly drawn) [Example 295, 2-[4-[2-[[(2S)-1-methylpyrrolidin-2-yl]methoxy]-7-(4-quinolyl)-6,8-dihydro-5H-pyrido[3,4-d]pyrimidin-4-yl]-1-prop-2-enoyl-piperazin-2-yl]acetonitrile], the 50% inhibitory concentration (IC50) is above 1000 nM. `Cc1cccc(N2CCc3c(nc(OC[C@@H]4CCCN4C)nc3N3CCN(C(=O)/C=C\Cl)[C@@H](CC#N)C3)C2)c1C` [Example 505, 2-((S)-1-((Z)-3-chloroacryloyl)-4-(7-(2,3-dimethylphenyl)-2-(((S)-1-methylpyrrolidin-2-yl)methoxy)-5,6,7,8-tetrahydropyrido[3,4-d]pyrimidin-4-yl)piperazin-2-yl)acetonitrile]: the half-inhibitory concentration (IC50) is above 1000 nM. In the case of `C=CC(=O)N1CCN(c2nc(OC[C@@H]3CCCN3C)nc3c2CCN(c2cccc4ccccc24)C3)[C@H](C)C1` [Example 353, 1-[(3R)-3-methyl-4-[2-[[(2S)-1-methylpyrrolidin-2-yl]methoxy]-7-(1-naphthyl)-6,8-dihydro-5H-pyrido[3,4-d]pyrimidin-4-yl]piperazin-1-yl]prop-2-en-1-one] it was above 1000 nM. On to `C=CC(=O)N1CCN(c2nc(OC[C@H]3CN(C)CCO3)nc3c2CCN(c2cccc4ccccc24)C3)CC1CC#N` (stereo partly drawn) [Example 270, 2-(1-acryloyl-4-(2-(((R)-4-methylmorpholin-2-yl)methoxy)-7-(naphthalen-1-yl)-5,6,7,8-tetrahydropyrido[3,4-d]pyrimidin-4-yl)piperazin-2-yl)acetonitrile], for which the IC50 was in the range of 0.1 to 1000 nM.

On to `C=CC(=O)N1CCN(c2nc(OCCCN3CCCCC3)nc3c2CCN(c2c(C)ccc4[nH]ncc24)C3)CC1` [Example 160, 1-(4-(7-(5-methyl-1H-indazol-4-yl)-2-(3-(piperidin-1-yl)propoxy)-5,6,7,8-tetrahydropyrido[3,4-d]pyrimidin-4-yl)piperazin-1-yl)prop-2-en-1-one], for which the half-inhibitory concentration (IC50) is above 1000 nM.

For the molecule `C=CC(=O)N1CCN(c2nc(OC[C@H]3CCCN3C)nc3c2CCN(c2ccccc2C(F)(F)F)C3)CC1CC#N` (stereo partly drawn) [Example 283, 2-(1-acryloyl-4-(2-(((R)-1-methylpyrrolidin-2-yl)methoxy)-7-(2-(trifluoromethyl)phenyl)-5,6,7,8-tetrahydropyrido[3,4-d]pyrimidin-4-yl)piperazin-2-yl)acetonitrile], the IC50 lay within 0.1 to 1000 nM. Take `C=CC(=O)N1CCN(c2nc(OCC3COCCN3C)nc3c2CCN(c2cc(O)cc4ccccc24)C3)CC1` (stereo not shown) [Example 194, 1-(4-(7-(3-hydroxynaphthalen-1-yl)-2-((4-methylmorpholin-3-yl)methoxy)-5,6,7,8-tetrahydropyrido[3,4-d]pyrimidin-4-yl)piperazin-1-yl)prop-2-en-1-one]: the IC50 is above 1000 nM. In the case of `C=CC(=O)N1CCN(c2nc(OC[C@@H]3CCCN3C(C)C)nc3c2CCN(c2cc(O)cc4ccccc24)C3)CC1` [Example 145, 1-[4-[7-(3-hydroxy-1-naphthyl)-2-[[(2S)-1-isopropylpyrrolidin-2-yl]methoxy]-6,8-dihydro-5H-pyrido[3,4-d]pyrimidin-4-yl]piperazin-1-yl]prop-2-en-1-one] it was 0.1 to 1000 nM; in that of `C=CC(=O)N1CCN(c2nc(OCCN(C)C)nc3c2CCN(c2cc(O)cc4ccccc24)C3C)CC1` (stereo not shown) [Example 47, 1-(4-(2-(2-(dimethylamino)ethoxy)-7-(3-hydroxynaphthalen-1-yl)-8-methyl-5,6,7,8-tetrahydropyrido[3,4-d]pyrimidin-4-yl)piperazin-1-yl)prop-2-en-1-one], above 1000 nM. In the case of `C=CC(=O)N1CCN(c2nc(O[C@H](C)CN(C)C)nc3c2CCN(c2cc(O)cc4ccccc24)C3)CC1` [Example 19, (R)-1-(4-(2-((1-(dimethylamino)propan-2-yl)oxy)-7-(3-hydroxynaphthalen-1-yl)-5,6,7,8-tetrahydropyrido[3,4-d]pyrimidin-4-yl)piperazin-1-yl)prop-2-en-1-one] it was 0.1 to 1000 nM. As for `C=CC(=O)N1CCN(c2nc(OC[C@@H]3C[C@@H](F)CN3C)nc3c2CCN(c2cncc(F)c2C(F)(F)F)C3)C[C@@H]1CC#N` [Example 384, 2-((S)-1-acryloyl-4-(2-(((2S,4R)-4-fluoro-1-methylpyrrolidin-2-yl)methoxy)-7-(5-fluoro-4-(trifluoromethyl)pyridin-3-yl)-5,6,7,8-tetrahydropyrido[3,4-d]pyrimidin-4-yl)piperazin-2-yl)acetonitrile], the half-maximal inhibitory concentration (IC50) fell in the range of 0.1 to 1000 nM.

As for `C=CC(=O)N1CCN(c2nc(OC[C@@H]3CCN(C)C3)nc3c2CCN(c2cc(O)cc4ccccc24)C3)CC1` [Example 110, (R)-1-(4-(7-(3-hydroxynaphthalen-1-yl)-2-((1-methylpyrrolidin-3-yl)methoxy)-5,6,7,8-tetrahydropyrido[3,4-d]pyrimidin-4-yl)piperazin-1-yl)prop-2-en-1-one], the IC50 fell in the range of 0.1 to 1000 nM. As to `C=CC(=O)N1CCN(c2nc(OC[C@@H]3CCCN3C)nc3c2CCN(c2cccc(F)c2C)C3)CC1CC#N` (stereo partly drawn) [Example 411, 2-(1-acryloyl-4-(7-(3-fluoro-2-methylphenyl)-2-(((S)-1-methylpyrrolidin-2-yl)methoxy)-5,6,7,8-tetrahydropyrido[3,4-d]pyrimidin-4-yl)piperazin-2-yl)acetonitrile], the IC50 is 0.1 to 1000 nM. With `C=CC(=O)N1CCN(c2nc(OCCCN3C[C@@H]4C[C@H]3CO4)nc3c2CCN(c2cc(O)cc4ccccc24)C3)CC1` [Example 104, 1-(4-(2-(3-((1S,4S)-2-oxa-5-azabicyclo[2.2.1]heptan-5-yl)propoxy)-7-(3-hydroxynaphthalen-1-yl)-5,6,7,8-tetrahydropyrido[3,4-d]pyrimidin-4-yl)piperazin-1-yl)prop-2-en-1-one], the IC50 lay in the range of 0.1 to 1000 nM. With `C=CC(=O)N1CCN(c2nc(OC[C@@H]3CCCN3C)nc3c2CCN(c2cccc(C)c2C)C3)C[C@@H]1CC#N` [Example 394, 2-((S)-1-acryloyl-4-(7-(2,3-dimethylphenyl)-2-(((S)-1-methylpyrrolidin-2-yl)methoxy)-5,6,7,8-tetrahydropyrido[3,4-d]pyrimidin-4-yl)piperazin-2-yl)acetonitrile], the IC50 was in the range of 0.1 to 1000 nM.

As to `Cc1cccc2cccc(N3CCc4c(nc(OC[C@@H]5CCCN5C)nc4N4CCN(C(=O)C#CCO)[C@@H](CC#N)C4)C3)c12` [Example 508, 2-((S)-1-(4-hydroxybut-2-ynoyl)-4-(7-(8-methylnaphthalen-1-yl)-2-(((S)-1-methylpyrrolidin-2-yl)methoxy)-5,6,7,8-tetrahydropyrido[3,4-d]pyrimidin-4-yl)piperazin-2-yl)acetonitrile], the IC50 was in the range of 0.1 to 1000 nM. In the case of `C=CC(=O)N1CCN(c2nc(OC[C@H]3C[C@H](O)CN3C)nc3c2CCN(c2cccc4ccccc24)C3)C[C@@H]1CC#N` [Example 323, 2-[(2S)-4-[2-[[(2R,4S)-4-hydroxy-1-methyl-pyrrolidin-2-yl]methoxy]-7-(1-naphthyl)-6,8-dihydro-5H-pyrido[3,4-d]pyrimidin-4-yl]-1-prop-2-enoyl-piperazin-2-yl]acetonitrile] it was 0.1 to 1000 nM; in that of `C=CC(=O)N1CCN(c2nc(OC[C@@H]3CCCN3C)nc3c2CCN(c2cccc(Cl)c2C)C3)C[C@@H]1CC#N` [Example 420, 2-((S)-1-acryloyl-4-(7-(3-chloro-2-methylphenyl)-2-(((S)-1-methylpyrrolidin-2-yl)methoxy)-5,6,7,8-tetrahydropyrido[3,4-d]pyrimidin-4-yl)piperazin-2-yl)acetonitrile], 0.1 to 1000 nM; in that of `C=CC(=O)N1CCN(c2nc(OC[C@@H]3CCCN3C)nc3c2CCN(c2cnccc2C#N)C3)C[C@@H]1CC#N` [Example 305, 3-(4-((S)-4-acryloyl-3-(cyanomethyl)piperazin-1-yl)-2-(((S)-1-methylpyrrolidin-2-yl)methoxy)-5,6-dihydropyrido[3,4-d]pyrimidin-7(8H)-yl)isonicotinonitrile], above 1000 nM. In the case of `C=C(F)C(=O)N1CCN(c2nc(OC[C@@H]3CCCN3C)nc3c2CCN(c2cncc4ccc(C)cc24)C3)C[C@@H]1CC#N` [Example 607, 2-((S)-1-(2-fluoroacryloyl)-4-(7-(6-methylisoquinolin-4-yl)-2-(((S)-1-methylpyrrolidin-2-yl)methoxy)-5,6,7,8-tetrahydropyrido[3,4-d]pyrimidin-4-yl)piperazin-2-yl)acetonitrile] it was 0.1 to 1000 nM; in that of `C=CC(=O)N1CCN(c2nc(NC3CCN(C4CC4)CC3)nc3c2CCN(c2cc(O)cc4ccccc24)C3)CC1` [Example 204, 1-(4-(2-((1-cyclopropylpiperidin-4-yl)amino)-7-(3-hydroxynaphthalen-1-yl)-5,6,7,8-tetrahydropyrido[3,4-d]pyrimidin-4-yl)piperazin-1-yl)prop-2-en-1-one], above 1000 nM; in that of `C=CC(=O)N1CCN(c2nc(OCCN3CCCCC3)nc3c2CCN(c2c(C)ccc4[nH]ncc24)C3)CC1` [Example 164], above 1000 nM. In the case of `C=CC(=O)N1CCN(c2nc(OC[C@@H]3CCCN3C)nc3c2CCN(c2c(OC)ccc4[nH]ncc24)C3)CC1` [Example 157] it was above 1000 nM.

The record behind these values is patent publication US10689377B2 (Mirati Therapeutics, Inc., priority 2017, dated 2020).
